Paper PMC9317327, “Functional Characterization, Antimicrobial Effects, and Potential Antibacterial Mechanisms of NpHM4, a Derived Peptide of Nautilus pompilius Hemocyanin” (Marine Drugs, 2022)
In brackets after ≈: the same amount, converted by molar mass. Where two headings read alike, the source gives them in different places. Where a SMILES comes first, the peptide text is derived from it.

Key:
Type in all cases: cell-based
[1] = test system: Bacillus subtilis ATCC 6051; conditions: ATCC 6051, 2 h, pH 7.2
Method: (§1) The antimicrobial activity of the peptides was determined against Gram-negative bacteria, including V. alginolyticus (A056), E. coli (DH5α), and V. parahaemolyticus (2013V-1174), which were obtained from the South China Sea Institute of Oceanology, Chinese Academy of Sciences. The activity was also tested against the Gram-positive bacteria S. aureus ATCC 25923 and B. subtilis ATCC 6051. To assess the antimicrobial activities of the peptides, bacterial cells were cultured to the logarithmic growth phase and then diluted to 10^6–1.5 × 10^7 CFU/mL with PBS (0.01 M, pH 7.2). Equal volumes of serially diluted peptides, with concentrations ranging from 30 to 450 μM in PBS, and bacteria suspension were mixed and incubated at room temperature for 2 h, respectively. Then, 6 μL of each serially diluted mixture was plated on sterile 12-well agar plates, followed by incubation for 11 to 12 h, and the colonies were assessed to determine the MICs and MBCs. The MICs were expressed (in µM) as an [a]–[b] concentration interval, where [a] is the highest peptide concentration at which bacteria were growing and [b] is the lowest concentration that caused 100% growth inhibition. Cultures without peptides were employed as controls. All the tests were performed in triplicate and repeated three times.

Escherichia coli (DH5α) = test system: Escherichia coli (DH5α)
Method: as §1

[2] = test system: Staphylococcus aureus ATCC 25923; conditions: ATCC 25923, 2 h, pH 7.2
Method: as §1

[3] = test system: Vibrio alginolyticus (A056)
Method: as §1

[4] = test system: Vibrio parahaemolyticus 2013V-1174; conditions: 2 h, pH 7.2
Method: as §1

Row | MIC [1] [µM] | MIC (Escherichia coli (DH5α); DH5α, 2 h, pH 7.2) [µM] | MIC [2] [µM] | MIC ([3]; 2 h, pH 7.2) [µM] | Compound | MBC [1] [µM] | MBC (Escherichia coli (DH5α); DH5α, 2 h, pH 7.2) [µM] | MBC [2] [µM] | MBC ([3]; 2 h, pH 7.2) [µM] | MBC [4] [µM] | MIC [4] [µM] | MBC (Escherichia coli (DH5α); E. coli DH5α, 2 h in PBS pH 7.2 at room temperature, plated 11 to 12 h, triplicate, repeated three times) [µM] | MIC (Escherichia coli (DH5α); E. coli DH5α, peptide mixed with bacteria (10^6–1.5 × 10^7 CFU/mL) in PBS 0.01 M pH 7.2, 2 h room temperature, plated on agar 11 to 12 h, interval [a]–[b]: [a] highest concentration with growth, [b] lowest with 100% growth inhibition, triplicate, repeated three times) [µM] | MIC ([3]; V. alginolyticus A056, 2 h in PBS pH 7.2 at room temperature, plated 11 to 12 h, interval [a]–[b]: [a] highest concentration with growth, [b] lowest with 100% growth inhibition, triplicate, repeated three times) [µM] | MBC ([3]; V. alginolyticus A056, 2 h in PBS pH 7.2 at room temperature, plated 11 to 12 h, triplicate, repeated three times) [µM]
1 | >60 | 15 to 60 | >60 | 50 to 150 | CC[C@H](C)[C@H](NC(=O)CNC(=O)[C@H](Cc1c[nH]cn1)NC(=O)[C@H](CCCNC(=N)N)NC(=O)[C@H](CC(C)C)NC(=O)[C@H](Cc1ccccc1)NC(=O)CNC(=O)[C@H](C)NC(=O)[C@H](Cc1ccccc1)NC(=O)[C@@H](NC(=O)[C@@H](N)CCCNC(=N)N)C(C)C)C(=O)N[C@@H](CCCCN)C(=O)N[C@@H](CCCNC(=N)N)C(=O)N[C@@H](CO)C(=O)N[C@@H](C)C(=O)O [NpHM1] (H-RVFAGFLRHGIKRSA-OH) | >60 | >60 | >60 | >150 | >60 | 15 to 60 |  |  |  | 
2 |  | 30 to 60 |  | 70 to 150 | CC[C@H](C)[C@H](NC(=O)CNC(=O)[C@H](Cc1c[nH]cn1)NC(=O)[C@H](CC(C)C)NC(=O)[C@H](CC(C)C)NC(=O)[C@H](Cc1ccccc1)NC(=O)CNC(=O)[C@H](C)NC(=O)[C@H](Cc1ccccc1)NC(=O)[C@@H](NC(=O)[C@@H](N)CCCNC(=N)N)C(C)C)C(=O)N[C@@H](CCCCN)C(=O)N[C@@H](CCCNC(=N)N)C(=O)N[C@@H](CO)C(=O)N[C@@H](CCCNC(=N)N)C(=O)O [NpHM2] (H-RVFAGFLLHGIKRSR-OH) |  |  |  | >75 | >60 | 30 to 60 |  |  |  | 
3 | >150 | >150 | >150 | >150 | CC[C@H](C)[C@H](NC(=O)CNC(=O)[C@H](Cc1c[nH]cn1)NC(=O)[C@H](CCCNC(=N)N)NC(=O)[C@H](CC(C)C)NC(=O)[C@H](Cc1ccccc1)NC(=O)CNC(=O)[C@H](C)NC(=O)[C@H](CCCNC(=N)N)NC(=O)[C@@H](NC(=O)[C@@H](N)CCCNC(=N)N)C(C)C)C(=O)N[C@@H](CCCCN)C(=O)N[C@@H](CCCNC(=N)N)C(=O)N[C@@H](CO)C(=O)N[C@@H](CCCNC(=N)N)C(=O)O [NpHM7] (H-RVRAGFLRHGIKRSR-OH) | >150 | >150 | >150 | >150 | >150 | >150 |  |  |  | 
4 |  | 250 to 450 |  | 50 to 250 | CC[C@H](C)[C@H](NC(=O)[C@H](CS)NC(=O)[C@H](CS)NC(=O)[C@H](C)NC(=O)[C@H](Cc1ccc(O)cc1)NC(=O)[C@H](CCCNC(=N)N)NC(=O)[C@H](Cc1c[nH]cn1)NC(=O)[C@H](CC(C)C)NC(=O)[C@H](C)NC(=O)[C@@H](N)CCCCN)C(=O)N[C@@H](Cc1c[nH]cn1)C(=O)NCC(=O)N[C@@H](CCSC)C(=O)N[C@@H](C)C(=O)N[C@H](C(=O)O)[C@@H](C)O [NpHN3] (H-KALHRYACCIHGMAT-OH) |  | >450 |  | >250 |  |  |  |  |  | 
5 |  | 200 to 600 |  | 100 to 300 | CC[C@H](C)[C@H](NC(=O)[C@H](CCCNC(=N)N)NC(=O)[C@@H](NC(=O)[C@H](CC(N)=O)NC(=O)[C@H](C)NC(=O)[C@H](CO)NC(=O)[C@H](C)NC(=O)[C@H](CCC(N)=O)NC(=O)[C@@H](NC(=O)CNC(=O)[C@H](Cc1c[nH]cn1)NC(=O)[C@H](CC(C)C)NC(=O)[C@H](CC(C)C)NC(=O)[C@H](Cc1ccccc1)NC(=O)CN)[C@@H](C)CC)C(C)C)C(=O)O [NpHN4] (H-GFLLHGIQASANVRI-OH) |  | >600 |  | >300 |  |  |  |  |  | 
6 |  | 250 to 500 |  | 100 to 300 | CC[C@H](C)[C@H](NC(=O)CNC(=O)[C@H](Cc1c[nH]cn1)NC(=O)[C@H](CC(C)C)NC(=O)[C@H](CC(C)C)NC(=O)[C@H](Cc1ccccc1)NC(=O)CNC(=O)[C@H](C)NC(=O)[C@H](Cc1ccccc1)NC(=O)[C@@H](NC(=O)[C@@H](N)CCCNC(=N)N)[C@@H](C)CC)C(=O)NCC(=O)N[C@@H](CCC(N)=O)C(=O)N[C@@H](CO)C(=O)N[C@@H](C)C(=O)O [NpHN6] (H-RIFAGFLLHGIGQSA-OH) |  | >500 |  |  |  |  |  |  |  | 

Continued, compound first:

Row | Compound | MIC [1] [µM] | MIC (Escherichia coli (DH5α); DH5α, 2 h, pH 7.2) [µM] | MIC [2] [µM] | MIC ([3]; 2 h, pH 7.2) [µM] | MBC [1] [µM] | MBC (Escherichia coli (DH5α); DH5α, 2 h, pH 7.2) [µM] | MBC [2] [µM] | MBC ([3]; 2 h, pH 7.2) [µM] | MBC [4] [µM] | MIC [4] [µM] | MBC (Escherichia coli (DH5α); E. coli DH5α, 2 h in PBS pH 7.2 at room temperature, plated 11 to 12 h, triplicate, repeated three times) [µM] | MIC (Escherichia coli (DH5α); E. coli DH5α, peptide mixed with bacteria (10^6–1.5 × 10^7 CFU/mL) in PBS 0.01 M pH 7.2, 2 h room temperature, plated on agar 11 to 12 h, interval [a]–[b]: [a] highest concentration with growth, [b] lowest with 100% growth inhibition, triplicate, repeated three times) [µM] | MIC ([3]; V. alginolyticus A056, 2 h in PBS pH 7.2 at room temperature, plated 11 to 12 h, interval [a]–[b]: [a] highest concentration with growth, [b] lowest with 100% growth inhibition, triplicate, repeated three times) [µM] | MBC ([3]; V. alginolyticus A056, 2 h in PBS pH 7.2 at room temperature, plated 11 to 12 h, triplicate, repeated three times) [µM]
7 | CC[C@H](C)[C@H](NC(=O)CNC(=O)[C@H](Cc1c[nH]cn1)NC(=O)[C@H](CC(C)C)NC(=O)[C@H](CC(C)C)NC(=O)[C@H](Cc1ccccc1)NC(=O)CNC(=O)[C@H](C)NC(=O)[C@H](CCCNC(=N)N)NC(=O)[C@@H](NC(=O)[C@@H](N)CCCNC(=N)N)C(C)C)C(=O)N[C@@H](CCCCN)C(=O)N[C@@H](CCCNC(=N)N)C(=O)N[C@@H](CO)C(=O)N[C@@H](C)C(=O)O [NpHM3] (H-RVRAGFLLHGIKRSA-OH) | >60 | 15 to 50 | >60 | 30 to 75 | >60 | >60 | >60 | >150 | >60 | 15 to 60 |  |  |  | 
8 | CC[C@H](C)[C@H](NC(=O)CNC(=O)[C@H](Cc1c[nH]cn1)NC(=O)[C@H](CC(C)C)NC(=O)[C@H](CC(C)C)NC(=O)[C@H](Cc1ccccc1)NC(=O)CNC(=O)[C@H](C)NC(=O)[C@H](CCCNC(=N)N)NC(=O)[C@@H](NC(=O)[C@@H](N)CCCNC(=N)N)C(C)C)C(=O)N[C@@H](CCCCN)C(=O)N[C@@H](CCCNC(=N)N)C(=O)N[C@@H](CO)C(=O)N[C@@H](CCCNC(=N)N)C(=O)O [NpHM5] (H-RVRAGFLLHGIKRSR-OH) | >50 | >50 | >50 | 15 to 70 | >50 | >50 | >50 | >70 | >70 | 15 to 70 |  |  |  | 
9 | CC[C@H](C)[C@H](NC(=O)CNC(=O)[C@H](Cc1c[nH]cn1)NC(=O)[C@H](CCCNC(=N)N)NC(=O)[C@H](CC(C)C)NC(=O)[C@H](Cc1ccccc1)NC(=O)CNC(=O)[C@H](C)NC(=O)[C@H](CCCNC(=N)N)NC(=O)[C@@H](NC(=O)[C@@H](N)CCCNC(=N)N)C(C)C)C(=O)N[C@@H](CCCCN)C(=O)N[C@@H](CCCNC(=N)N)C(=O)N[C@@H](CO)C(=O)N[C@@H](C)C(=O)O [NpHM6] (H-RVRAGFLRHGIKRSA-OH) | >50 | >50 | >50 | >70 | >50 | >50 | >50 | >70 | >60 | 15 to 60 |  |  |  | 
10 | CSCC[C@H](NC(=O)[C@H](Cc1ccccc1)NC(=O)CNC(=O)[C@H](C)NC(=O)[C@H](Cc1ccccc1)NC(=O)[C@@H](N)C(C)C)C(=O)N[C@@H](CC(C)C)C(=O)N[C@@H](Cc1c[nH]cn1)C(=O)NCC(=O)N[C@@H](Cc1ccccc1)C(=O)N[C@@H](CCCCN)C(=O)N[C@@H](CCCCN)C(=O)N[C@@H](CO)C(=O)N[C@@H](C)C(=O)N[C@@H](CC(C)C)C(=O)N[C@H](C(=O)O)C(C)C [NpHN1] (H-VFAGFMLHGFKKSALV-OH) |  | 250 to 450 |  | 50 to 260 |  | >450 |  | >260 |  |  |  |  |  | 
11 | CC[C@H](C)[C@H](NC(=O)CNC(=O)[C@H](CO)NC(=O)[C@H](CC(C)C)NC(=O)[C@H](CCCNC(=N)N)NC(=O)[C@H](Cc1ccccc1)NC(=O)[C@H](CO)NC(=O)[C@H](C)NC(=O)[C@@H](N)Cc1ccccc1)C(=O)N[C@@H](Cc1c[nH]cn1)C(=O)N[C@H](C(=O)N[C@@H](CO)C(=O)N[C@@H](C)C(=O)N[C@@H](CC(N)=O)C(=O)N[C@H](C(=O)N[C@@H](CCCCN)C(=O)N[C@H](C(=O)N[C@@H](CC(C)C)C(=O)O)C(C)C)C(C)C)[C@@H](C)O [NpHN2] (H-FASFRLSGIHTSANVKVL-OH) |  | 200 to 500 |  | 100 to 280 |  | >500 |  | >280 |  |  |  |  |  | 
12 | CC[C@H](C)[C@H](NC(=O)CNC(=O)[C@H](Cc1c[nH]cn1)NC(=O)[C@H](CC(C)C)NC(=O)[C@H](CC(C)C)NC(=O)[C@H](Cc1ccccc1)NC(=O)CNC(=O)[C@H](C)NC(=O)[C@H](Cc1ccccc1)NC(=O)[C@@H](NC(=O)[C@@H](N)CCCNC(=N)N)C(C)C)C(=O)N[C@@H](CCCCN)C(=O)N[C@@H](CCCNC(=N)N)C(=O)N[C@@H](CO)C(=O)N[C@@H](C)C(=O)O [NpHN5] (H-RVFAGFLLHGIKRSA-OH) |  |  |  |  |  |  |  |  |  |  | 450 (≈ 752 µg/mL) | 200 to 450 | 50 to 250 | 250 (≈ 418 µg/mL)
